Series [1] in a line: Contrast experiment: CT imaging after tail vein injection (Test Example 3). The conditions noted are these: 9-week-old male ICR mouse, MEG-1 dose 52 mg/animal, images before, during, 15 minutes and 1 hour after administration. Format: in vivo. On the procedure:
A 9-week-old male ICR mouse purchased from CLEA Japan, Inc. was anesthetized by isoflurane inhalation. While the respiratory condition was monitored with DELPet μCT100 application software (DELBio, Inc.), MEG-1 was gradually administered by injection from the tail vein. The dose of MEG-1 was set to 52 mg/animal.
CT images were taken before administration, during administration, 15 minutes after administration and 1 hour after administration. Image data from the chest to the lower abdomen was reconstituted at a pixel size of […] and converted to dicom data. Further, the images were analyzed with VivoQuant software (inviCRO. LLC).
A similar test was conducted using MEG-2, MEG-4, or RYO-2 instead of MEG-1.

Series [2] deals with T1, asialoglycoprotein receptor (Homo sapiens, UniProt P07306+P07307).
T1 construct: reacted with HepG2 cells washed with ice-cold MEM (GIBCO) in 6 wells; endogenous in cells; host or cells: HepG2
T1 sequence (P07306 1-291): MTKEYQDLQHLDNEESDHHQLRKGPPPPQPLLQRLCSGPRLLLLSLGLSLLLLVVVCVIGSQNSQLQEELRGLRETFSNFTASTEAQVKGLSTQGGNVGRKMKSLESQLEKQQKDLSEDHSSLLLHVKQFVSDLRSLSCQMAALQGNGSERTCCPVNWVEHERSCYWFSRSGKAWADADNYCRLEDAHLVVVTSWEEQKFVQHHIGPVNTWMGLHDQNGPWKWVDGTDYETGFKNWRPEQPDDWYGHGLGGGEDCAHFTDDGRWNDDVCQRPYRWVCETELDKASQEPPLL
T1 sequence (P07307 1-311): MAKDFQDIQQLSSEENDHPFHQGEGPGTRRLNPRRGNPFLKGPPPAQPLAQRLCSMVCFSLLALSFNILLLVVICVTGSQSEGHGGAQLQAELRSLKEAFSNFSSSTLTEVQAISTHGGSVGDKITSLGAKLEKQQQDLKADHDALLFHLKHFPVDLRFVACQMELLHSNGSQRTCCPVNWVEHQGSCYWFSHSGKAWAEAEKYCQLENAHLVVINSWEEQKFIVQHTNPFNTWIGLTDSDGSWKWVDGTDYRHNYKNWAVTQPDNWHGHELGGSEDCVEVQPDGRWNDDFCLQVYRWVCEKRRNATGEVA
Nature of the series: Uptake inhibition test of I-ASOR in liver cancer cell line HepG2 (Test Example 1). In kind it is cell-based. The conditions noted are these: compound 100 μg/mL, I-ASOR 6 μg/mL, 4° C. for 30 minutes, FIG. 1. As for the experimental part:
RYO-1, MEG-1, and MEG-2 prepared in Examples were subjected to an uptake inhibition test, in which the uptake is performed by an asialoglycoprotein receptor specifically expressed in hepatocytes, using a liver cancer cell line HepG2 in accordance with J Gastroenterol 1998, 33, 855-859. Specifically, the test is based on the following method.
First, orosomucoid (Sigma-Aldrich Co., LLC) was converted to an asialo compound through reaction with immobilized neuraminidase (Sigma-Aldrich Co., LLC) at 37° C. for 12 hours. This asialo-orosomucoid (ASOR) was labeled with radioactive iodine (125I) by use of the chloramine-T method to prepare I-ASOR.
The obtained I-ASOR was prepared as a 6 μg/mL solution in PBS and reacted with HepG2 cells washed with ice-cold MEM (GIBCO) in 6 wells at 4° C. for 30 minutes. The cells were thoroughly washed and then lysed using 0.1 N NaOH, and radiation dose “A” taken up into the cells was measured (control sample). […]
Next, the background of nonspecific binding of I-ASOR was measured as follows in order to eliminate the influence of the nonspecific binding of I-ASOR to the cells. […] Then, the obtained cells were washed and lysed, and radiation dose “B” was measured. […]
Next, “A-B” was calculated as to each sample to calculate I-ASOR specifically taken up into HepG2. […]

Series [3] relates to Panc-1 cells. Nature of the series: Uptake inhibition test of I-ASOR in pancreatic cancer cell line Panc-1 having no asialoglycoprotein receptor (Test Example 1). The conditions noted are these: compound 100 μg/mL, I-ASOR 6 μg/mL, 4° C. for 30 minutes, FIG. 2. Format: cell-based. As for the experimental part: A similar experiment was conducted using a pancreatic cancer cell line Panc-1 having no asialoglycoprotein receptor. Specifically, the test is based on the following method.
I-ASOR labeled with radioactive iodine (125I) in the same manner as above was prepared as a 6 μg/mL solution in PBS and reacted with Panc-1 cells washed with ice-cold MEM (GIBCO) in 6 wells at 4° C. for 30 minutes. The cells were thoroughly washed and then lysed using 0.1 N NaOH, and radiation dose “A” taken up into the cells was measured (control sample). Similar measurement was performed by the addition of I-ASOR as well as MEG-1, MEG-2, or RYO-1 at 100 μg/mL to measure radiation dose “A” when each compound was added.
Next, the background of nonspecific binding of I-ASOR was measured as follows in order to eliminate the influence of the nonspecific binding of I-ASOR to the cells. Specifically, I-ASOR (6 μg/mL) and a 100-fold concentration (600 μg/mL) of nonlabelled ASOR were mixed and reacted with Panc-1 in the same manner as above. Then, the obtained cells were washed and lysed, and radiation dose “B” was measured. The radiation dose “B” as the background was commonly used in all of the control sample and the sample supplemented with each compound.
Next, “A-B” was calculated as to each sample to calculate I-ASOR specifically taken up into Panc-1. […]

For series [4], the target named is T1, asialoglycoprotein receptor. Nature of the series: Comparison of uptake activity by asialoglycoprotein receptor among compounds in HepG2 (Test Example 2). Format: cell-based. The conditions noted are these: compound 1.0 mM/mL, I-ASOR 0.4 μg/mL, 37° C. for 30 minutes, FIG. 3. As for the experimental part:
Uptake activity by an asialoglycoprotein receptor was compared among MEG-2, MEG-4, RYO-1, and RYO-2 by use of the same method as in Test Example 1.
A PBS solution containing 0.4 μg/mL I-ASOR obtained in the same manner as in Test Example 1 and 1.0 mM/mL MEG-2, MEG-4, RYO-1, or RYO-2 was prepared and reacted with HepG2 washed with ice-cold MEM (GIBCO) in 6 wells at 37° C. for 30 minutes. The cells were thoroughly washed and then lysed using 0.1 N NaOH, and radiation dose “A” taken up into HepG2 was measured.
An experiment was conducted as a positive control in which a PBS solution containing 0.4 μg/mL I-ASOR and 1000 μg/mL nonlabelled ASOR was prepared and reacted with HepG2 washed with ice-cold MEM (GIBCO) in 6 wells at 4° C. for 30 minutes.
Next, the background of nonspecific binding of I-ASOR was measured as follows in order to eliminate the influence of the nonspecific binding of I-ASOR to the cells. Specifically, I-ASOR (0.4 μg/mL) and a 100-fold concentration (40 μg/mL) of nonlabelled ASOR were mixed and reacted with HepG2 in the same manner as above. Then, the obtained cells were washed and lysed, and radiation dose “B” was measured. The radiation dose “B” as the background was commonly used in all of the control sample, the positive control sample, and the sample supplemented with each compound.
Next, “A-B” was calculated as to each sample to calculate I-ASOR specifically taken up into HepG2. The experiment was conducted in triplicate to calculate standard deviation.

`CC(=O)Nc1c(I)c(NC(C)=O)c(I)c(C(=O)NCCO[C@@H]2OC(CO)[C@H](O)C(O)[C@@H]2O)c1I` (stereo partly drawn) [MEG-1]: in series [1], the “CT images: appearance of high-absorption liquid (excretion sites)” value (“CT images: appearance” below) is “a liquid that exhibited high absorption, which was not observed before administration, was confirmed to appear over time in the intestine and in the urinary bladder”. The “inhibition of the uptake of the ligand (I-ASOR) in HepG2” value (“inhibition of the uptake … in HepG2” for short) in series [2] is reported as “competitively inhibit the uptake of the ligand”. Moreover, the “inhibition of the uptake of the ligand (I-ASOR) in Panc-1” value in series [3] is “none of RYO-1, MEG-1, and MEG-2 inhibited the uptake of the ligand”.

For the compound `O=C(NCCOCCO[C@@H]1OC(CO)[C@H](O)[C@H](O)C1O)c1c(I)c(C(=O)NCCOCCO[C@@H]2OC(CO)[C@H](O)[C@H](O)C2O)c(I)c(C(=O)NCCOCCO[C@@H]2OC(CO)[C@H](O)[C@H](O)C2O)c1I` (stereo partly drawn) [MEG-4], the “CT images: appearance” value in series [1] is “a liquid that exhibited high absorption, which was not observed before administration, was confirmed to appear over time in the intestine and in the urinary bladder”. Also, in series [4], the “inhibition of the uptake … in HepG2” value was “competitively inhibited the uptake of the ligand in HepG2” and the “inhibitory ability on ligand uptake compared between compounds” value is reported as “higher in MEG-4 than in MEG-2”.

For the compound `CC(=O)Nc1c(I)c(NC(C)=O)c(I)c(C(=O)NCCNC(=O)[C@H](O)[C@@H](O)C(O[C@@H]2OC(CO)[C@H](O)[C@H](O)C2O)[C@@H](O)CO)c1I` (stereo partly drawn) [RYO-1], the entries for the “inhibition of the uptake … in HepG2” value in series [2] and in series [4] were “competitively inhibit the uptake of the ligand” and “competitively inhibited the uptake of the ligand in HepG2”, respectively. The “inhibition of the uptake of the ligand (I-ASOR) in Panc-1” value in series [3] is “none of RYO-1, MEG-1, and MEG-2 inhibited the uptake of the ligand”.

With `O=C(NCCNC(=O)[C@H](O)[C@@H](O)[C@H](O[C@@H]1O[C@H](CO)[C@H](O)[C@H](O)[C@H]1O)[C@H](O)CO)c1c(I)c(C(=O)NCCNC(=O)[C@H](O)[C@@H](O)[C@H](O[C@@H]2O[C@H](CO)[C@H](O)[C@H](O)[C@H]2O)[C@H](O)CO)c(I)c(C(=O)NCCNC(=O)[C@H](O)[C@@H](O)C(O[C@@H]2O[C@H](CO)[C@H](O)[C@H](O)[C@H]2O)[C@H](O)CO)c1I` (stereo partly drawn) [RYO-2], the “CT images: appearance” value in series [1] is “a liquid that exhibited high absorption, which was not observed before administration, was confirmed to appear over time in the intestine and in the urinary bladder”. In series [4], the “inhibition of the uptake … in HepG2” value is given as “competitively inhibited the uptake of the ligand in HepG2” and the “inhibitory ability on ligand uptake compared between compounds” value is on record as “higher in RYO-2 than in RYO-1”.

The record behind these values is patent US20230321284A1, “COMPOUND, CONTRAST AGENT, AND METHOD FOR PRODUCING COMPOUND” (ST. MARIANNA UNIVERSITY SCHOOL OF MEDICINE, priority 2020, published 2023).
